# According to a melting point compilation (Tetko et al.; mined from patent text by program, amines drawn as free bases though some values may be those of a salt):
row,Structure (SMILES),melting point
1,CCCCCOc1ccc(-c2cnc(C#N)nc2)cc1,100 °C
2,O=C(CNc1c(C(=O)O)[nH]c2cc(F)ccc12)c1ccccc1,142 to 143 °C
3,CCOC(=O)N1CC[C@H](NC(=O)c2cc(N)c(Cl)cc2OC)[C@H](OC)C1 (relative stereo),142 °C
4,N=CN1C(C(=O)NN)C(Sc2ccccc2)=CC(=O)N1c1ccccc1 (stereo not given),236 to 238 °C
5,COc1cc2c(s1)c(=O)c(SC)cn2C,185 to 187 °C
6,ClCc1ccc(OCc2cn3c(Cl)cccc3n2)cc1,114 to 115 °C
7,COCCc1nc2c(N)nc3ccccc3c2n1CC(C)C,168 to 170 °C
8,Nc1sc2c(c1C(=O)c1ccc(Cl)s1)CCCC2,173 to 175 °C
9,N#CSCC(I)=C(I)CCl,76 to 78 °C
10,O=C(Nc1cccc2c1C(=O)c1c-2n[nH]c1-c1ccc(C(=O)N2CCN(CC3CC3)CC2)s1)NN1CCOCC1,211 to 212 °C
11,CCCCC1(N(C)C)CC=C(c2c[nH]c3ncccc23)CC1 (stereo not given),142 to 145 °C
12,C[C@@H](O)c1nccc(N2CCN(Cc3ccccn3)CC2)n1,68 to 70 °C
13,COC(=O)c1oc2ccc(Cl)cc2c1-c1ccccc1C,212 to 214 °C
14,[N-]=[N+]=CC(=O)C(Cc1ccc(F)cc1)NC(=O)OCc1ccccc1 (racemic),97 °C
15,CCOC(=O)[C@H](Cc1c[nH]c2ccccc12)NC(=O)OCc1ccccc1,80 to 83 °C
16,CCCCCCc1nnc2n1-c1ccc(Cl)cc1C(c1ccccc1)=NC2,75 to 78 °C
17,O=C(O)c1ccc2c(c1)C=C(n1ccnc1)CC2,323 to 326 °C
18,COc1ccc(S(=O)(=O)C(C)(Cc2ccc(Br)cc2)C(=O)NO)cc1 (stereo not given),86 to 88 °C
19,Cc1nc2c(OC3CCc4ccccc43)nccc2n1C (stereo not given),164 to 165 °C
20,O=C1N(Cc2ccc(C(F)(F)F)o2)c2cc3c(cc2C12COc1cc4c(cc12)OCCO4)OCCO3 (stereo not given),176 to 178 °C
21,Brc1ccc(NN=C(Cc2ccco2)c2ccccc2)nc1,105 to 107 °C
22,COC(=O)Cc1ccc(CN2CCN(C(c3ccccc3)c3ccccn3)CC2)cc1 (stereo not given),122 to 123 °C
23,O=C(O)C(F)(F)C(F)(F)C(F)(F)C(F)(F)C(F)(F)C(F)(F)C(=O)O,142 to 144 °C
24,Nc1cccc(Cn2c(-c3ccc(O)cc3)ccc2-c2ccccc2Cl)n1,170 to 172 °C
25,CCOC(=O)c1nc2ccccn2c1S(N)(=O)=O,166 to 168 °C

row,Structure (SMILES),melting point
1,Cc1ccccc1Nc1ccccc1C=C(Br)Br,65 to 67 °C
2,Cc1sc(-c2ccccc2)nc1COc1ccc(COc2ncccc2CC(=O)O)cc1,128 to 129 °C
3,CC(N1CCC(n2c(=O)[nH]c3ccccc32)CC1)N1Sc2ccccc2C1C(N)=O (stereo not given),174 to 177 °C
4,COc1ccc(Oc2c(C)noc2NS(=O)(=O)c2ccccc2)cc1,128 to 130 °C
5,COC(=O)c1ccc(NC(=O)/C=C/c2c(C)noc2-c2ccccc2)cc1,174 to 175 °C
6,COC(=O)c1ccc(/C=C/c2c(OC)cc3c(c2OC)C(C)(C)CCC3(C)C)cc1,140 to 142 °C
7,COCc1cnc2c(NC(=O)c3c(Cl)cccc3Cl)cccc2c1N1CCNC1=O,210 to 212 °C
8,O=C1NCC(Cc2ccccc2Cc2ccccc2)O1 (stereo not given),105 to 106 °C
9,CC(=O)OCC(=O)C1C(C)CC2C3CC(Cl)C4=CC(=O)C=CC4(C)C3=CCC21C (stereo not given),181 °C
10,CCN1c2ncccc2C(=O)Nc2c(C)cc(N3CCC(OC(C)=O)C3)nc21 (stereo not given),188 to 190 °C
11,CCOC(=O)COc1ccc(C=O)cc1,39 °C
12,CC(OS(C)(=O)=O)C(C)N1C(=O)c2ccccc2C1=O (stereo not given),67 to 73 °C
13,COc1ccc2[nH]c(C)c(/C=C/C(=O)c3cccnc3)c2c1,193 to 195 °C
14,CN(C)c1ccc(-c2ccccc2C(=O)O)nc1,234 to 236 °C
15,CCCn1c(=O)c2[nH]c(/C=C/c3ccc(OCOC)c(OC)c3)nc2n(CCC)c1=O,227 °C
16,C=CCN1CC(=O)C(C#N)=C1N,275 to 278 °C
17,Oc1cccc(CN2CCOCC2)c1,113 to 115 °C
18,Cc1cc(-c2c(-c3ccc(S(N)(=O)=O)cc3)cnn(-c3ccc(F)cc3)c2=O)ccc1F,202 to 204 °C
19,O=C1CCC(CCc2ccc(-c3ccccc3)cc2)N1O (stereo not given),192 to 194 °C
20,COc1ccc(-c2cc(C)c(=O)[nH]n2)cc1,265 to 267 °C
21,CN(C(=O)N1CCOCC1)c1ccc(OCC(=O)N[C@@H](CC(N)=O)C(=O)N[C@@H](Cc2ccccc2)[C@H](O)C(=O)N2CCC[C@H]2C(=O)NC(C)(C)C)cc1,112 to 114 °C
22,CCOc1ccc2nc(COc3ccc(CC4SC(=O)NC4=O)cc3)n(C)c2n1 (stereo not given),245 to 246 °C
23,COC(=O)c1c(C(C)(C)O)nc(C(C)OC)n1Cc1ccc(-c2ccccc2-c2nnnn2C(c2ccccc2)(c2ccccc2)c2ccccc2)cc1 (stereo not given),131 to 133 °C
24,Cc1csc2c1c(-c1ccccc1Cl)nc(=O)n2C,268 °C
25,CCCNC(=O)C1(CCCc2ccccc2)c2ccccc2Sc2ccccc21,130 to 131 °C
